According to patent US10603289B2, “Process for the manufacture of ajoene derivatives” (DANMARKS TEKNISKE UNIVERSITET, priority 2010, dated 2020):

How the values were obtained:
P. aeruginosa PAO1 = format: in vivo; conditions: day three post-infection; E:Z 1:4 (FIG. 8)
Protocol: Mice were sacrificed on day one or day three post-infection and the contents of bacteria in the lungs were determined. Open squares indicate bacterial lung content per lung for each individual mouse. The median values are indicated with a filled black square. The statistic significance of difference in clearance was tested by a Mann-Whitney U test (analysis of nonparametric data) and p-values for the difference at day one and day three were 0.9 and 0.002 respectively.
In this study ajoene was administered prophylactic and subsequently continued after infection. Injections were given subcutaneous in the peritoneum. We performed three individual in vivo treatment experiments with ajoene in the mouse model of pulmonary infection using the P. aeruginosa PAO1. BALB/c mice were intracheally challenged (at day 0) with alginate beads containing 1.5×10^8 CFU/ml P. aeruginosa. The two groups of mice were either untreated (placebo) or treated with ajoene 25 μg/g mouse once a day. The mice were given two days of prophylactic treatment or placebo prior to bacterial challenge. Treatment was continued for three days. […] When combining the experiments a significant difference on day three was seen (p<0.002) with a 500 fold difference in clearance between the groups (FIG. 7). This is concordant with the results obtained by Bjarnsholt et al (2005) in a similar lung infection model in with raw garlic extract was used as treatment [T. Bjarnsholt et al., Microbiology, 2005, 151, p. 3873-3880].
This highlights that a synthesis providing a sufficiently pure “crude” ajoene product is essential in order to avoid the use of HPLC purification, as this step has a detrimental effect on biological activity. […] (E,Z) ajoene having an E:Z ratio of 1:4 was used.

[1] = test system: biofilms of P. aeruginosa PAO1; assay: In vitro flow cell biofilm killing, live dead stains and CSLM; format: cell-based
Protocol: Dead cells are stained with the DNA stain PI (Dark grey/black). The biofilm were visualized with CSLM. C) Implant model treated with ajoene and tobramycin.
3873-3880]. It was however unknown what was the active ingredient in the garlic extract. Thus. biofilms of P. aeruginosa strain were either grown in the presence or absence of 100 μg/ml ajoene. At day three the biofilms were treated with 10 μg/ml tobramycin for 24 hours. […] 10 μg/ml tobramycin was therefore chosen for the present study.

wild-type P. aeruginosa = assay: Foreign-body (silicone tube implant) infection model; format: in vivo, mice; conditions: CFU per implant 72 hours after insertion
Protocol: To examine the effect of a combination treatment with ajoene and tobramycin in vivo we used an foreign-body infection model [L. D. Christensen et al., Microbiology, 2007, 153, p. 2312-2320]. Silicone tube implants with a size of 4 mm (inner diameter 4 mm/outer diameter 6 mm) pre-colonized with wild-type P. aeruginosa, were inserted into the peritoneal cavity of mice. Treatments were injected subcutaneously every 24 hours, where ajoene and tobramycin treatment were initiated two days pre-insertion and 24 hours post-insertion, respectively. 72 hours after insertion the implants were removed from the mice and the number of colony-forming units per implant was determined. […] (E,Z) ajoene having an E:Z ratio of 1:4 was used.

| SMILES | clearing the pulmonary infection, by ajoene purity (P. aeruginosa PAO1) | extent of killing, comparison of tobramycin concentrations ([1]; prior treatment study, 10 μg/ml, 100 μg/ml or 340 μg/ml) | killing of the biofilm bacteria, single agent ([1]; tobramycin or ajoene only) | clearing of implants, single treatment versus placebo group (wild-type P. aeruginosa) |
| --- | --- | --- | --- | --- |
| C=CCSSC=CC[S+]([O-])CC=C (centres unmarked) [95-99.5% purity ajoene] | effective at clearing the pulmonary infection | – | – | – |
| NC[C@H]1O[C@H](O[C@H]2[C@H](O)[C@@H](O[C@H]3O[C@H](CO)[C@@H](O)[C@H](N)[C@H]3O)[C@H](N)C[C@@H]2N)[C@H](N)C[C@@H]1O [tobramycin] | – | no difference in the extent of killing | no or only minor killing | significant difference in clearing |
| C=CCSSC=CC[S+]([O-])CC=C (centres unmarked) [very high purity ajoene] | not effective at clearing the pulmonary infection | – | – | – |
